Data: PubChem BioAssay (NCI)
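How tested: cells in 96-well plates exposed to compound for 48 hours at five concentrations. GI50 is the concentration that inhibits growth by half. TGI marks complete inhibition of growth.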

Columns and labels:
Assay in all cases: DTP human tumour cell line panel, 48 h
SNB-75 CNS = tested on: SNB-75 CNS
MOLT-4 leukemia = tested on: MOLT-4 leukemia
K-562 leukemia = tested on: K-562 leukemia
SR leukemia = tested on: SR leukemia
T-47D breast = tested on: T-47D breast
PC-3 prostate = tested on: PC-3 prostate
TK-10 renal = tested on: TK-10 renal
HS 578T breast = tested on: HS 578T breast
UACC-257 melanoma = tested on: UACC-257 melanoma
HL-60(TB) leukemia = tested on: HL-60(TB) leukemia
COLO 205 colon = tested on: COLO 205 colon
HCT-15 colon = tested on: HCT-15 colon
HCC-2998 colon = tested on: HCC-2998 colon
A498 renal = tested on: A498 renal
SF-295 CNS = tested on: SF-295 CNS
EKVX NSCLC = tested on: EKVX NSCLC
NCI-H226 lung = tested on: NCI-H226 lung
786-0 renal = tested on: 786-0 renal
A549 NSCLC = tested on: A549 NSCLC
SW-620 colon = tested on: SW-620 colon
NCI/ADR-RES ovarian = tested on: NCI/ADR-RES ovarian
RPMI-8226 leukemia = tested on: RPMI-8226 leukemia
SNB-19 CNS = tested on: SNB-19 CNS
IGROV1 ovarian = tested on: IGROV1 ovarian
SK-OV-3 ovarian = tested on: SK-OV-3 ovarian
CCRF-CEM leukemia = tested on: CCRF-CEM leukemia
M14 melanoma = tested on: M14 melanoma
BT-549 breast = tested on: BT-549 breast
ACHN renal = tested on: ACHN renal
KM12 colon = tested on: KM12 colon
HCT-116 colon = tested on: HCT-116 colon
OVCAR-4 ovarian = tested on: OVCAR-4 ovarian
SK-MEL-28 melanoma = tested on: SK-MEL-28 melanoma
NCI-H23 lung = tested on: NCI-H23 lung
OVCAR-8 ovarian = tested on: OVCAR-8 ovarian
LOX IMVI melanoma = tested on: LOX IMVI melanoma
UO-31 renal = tested on: UO-31 renal
SF-268 CNS = tested on: SF-268 CNS
CAKI-1 renal = tested on: CAKI-1 renal
MALME-3M melanoma = tested on: MALME-3M melanoma
SF-539 CNS = tested on: SF-539 CNS
MDA-MB-231 breast = tested on: MDA-MB-231 breast
HOP-92 NSCLC = tested on: HOP-92 NSCLC
HOP-62 NSCLC = tested on: HOP-62 NSCLC
OVCAR-5 ovarian = tested on: OVCAR-5 ovarian
MDA-MB-435 = tested on: MDA-MB-435
MCF7 breast = tested on: MCF7 breast
RXF 393 renal = tested on: RXF 393 renal
U251 CNS = tested on: U251 CNS
NCI-H460 lung = tested on: NCI-H460 lung
SK-MEL-5 melanoma = tested on: SK-MEL-5 melanoma
NCI-H522 lung = tested on: NCI-H522 lung
DU-145 prostate = tested on: DU-145 prostate
HT29 colon = tested on: HT29 colon
SK-MEL-2 melanoma = tested on: SK-MEL-2 melanoma
OVCAR-3 ovarian = tested on: OVCAR-3 ovarian
SN12C renal = tested on: SN12C renal

CCCCS(=O)c1sc2nc(-c3cccs3)cc(-c3ccccc3)c2c1N (centres undefined)
GI50 (SNB-75 CNS): 10.2 µM | TGI (SNB-75 CNS): 98.7 µM | GI50 (MOLT-4 leukemia): 3.8 µM | TGI (MOLT-4 leukemia): > 62.6 µM | GI50 (K-562 leukemia): 5.96 µM | TGI (K-562 leukemia): > 100 µM | GI50 (SR leukemia): 6.46 µM | TGI (SR leukemia): > 68 µM | GI50 (T-47D breast): 5.77 µM | TGI (T-47D breast): 46.7 µM | GI50 (PC-3 prostate): 3.45 µM | TGI (PC-3 prostate): > 86.6 µM | GI50 (TK-10 renal): 15 µM | TGI (TK-10 renal): > 84 µM | GI50 (HS 578T breast): 18.9 µM | TGI (HS 578T breast): > 100 µM | GI50 (UACC-257 melanoma): 25.1 µM | TGI (UACC-257 melanoma): 90.5 µM | GI50 (HL-60(TB) leukemia): 14.5 µM | TGI (HL-60(TB) leukemia): > 85.5 µM | GI50 (COLO 205 colon): 16.9 µM | TGI (COLO 205 colon): 56.6 µM | GI50 (HCT-15 colon): 9.02 µM | TGI (HCT-15 colon): > 100 µM | GI50 (HCC-2998 colon): 32 µM | TGI (HCC-2998 colon): > 100 µM | GI50 (A498 renal): 8.02 µM | TGI (A498 renal): 76.9 µM | GI50 (SF-295 CNS): 9.88 µM | TGI (SF-295 CNS): > 100 µM | GI50 (EKVX NSCLC): 9.48 µM | TGI (EKVX NSCLC): > 100 µM | GI50 (NCI-H226 lung): 17.8 µM | TGI (NCI-H226 lung): > 100 µM | GI50 (786-0 renal): 8.26 µM | TGI (786-0 renal): > 100 µM | GI50 (A549 NSCLC): 9.69 µM | TGI (A549 NSCLC): > 100 µM | GI50 (SW-620 colon): 26 µM | TGI (SW-620 colon): > 100 µM | GI50 (NCI/ADR-RES ovarian): 6.42 µM | TGI (NCI/ADR-RES ovarian): > 100 µM | GI50 (RPMI-8226 leukemia): 3.59 µM | TGI (RPMI-8226 leukemia): 23.7 µM | GI50 (SNB-19 CNS): 18.7 µM | TGI (SNB-19 CNS): > 100 µM | GI50 (IGROV1 ovarian): 20.3 µM | TGI (IGROV1 ovarian): > 100 µM | GI50 (SK-OV-3 ovarian): 27.8 µM | TGI (SK-OV-3 ovarian): 97.3 µM | GI50 (CCRF-CEM leukemia): 6.71 µM | TGI (CCRF-CEM leukemia): > 84.8 µM | GI50 (M14 melanoma): 17.9 µM | TGI (M14 melanoma): > 100 µM | GI50 (BT-549 breast): 9.24 µM | TGI (BT-549 breast): 67.9 µM | GI50 (ACHN renal): 9.1 µM | TGI (ACHN renal): > 95.3 µM | GI50 (KM12 colon): 17.8 µM | TGI (KM12 colon): > 100 µM | GI50 (HCT-116 colon): 12.3 µM | TGI (HCT-116 colon): > 100 µM | GI50 (OVCAR-4 ovarian): 13.5 µM | TGI (OVCAR-4 ovarian): > 100 µM | GI50 (SK-MEL-28 melanoma): 29.2 µM | TGI (SK-MEL-28 melanoma): > 100 µM | GI50 (NCI-H23 lung): 19 µM | TGI (NCI-H23 lung): > 100 µM | GI50 (OVCAR-8 ovarian): 19.9 µM | TGI (OVCAR-8 ovarian): > 100 µM | GI50 (LOX IMVI melanoma): 13 µM | TGI (LOX IMVI melanoma): > 100 µM | GI50 (UO-31 renal): 4.16 µM | TGI (UO-31 renal): 49.2 µM | GI50 (SF-268 CNS): 23.3 µM | TGI (SF-268 CNS): > 100 µM | GI50 (CAKI-1 renal): 10.3 µM | TGI (CAKI-1 renal): > 100 µM | GI50 (MALME-3M melanoma): 26.1 µM | TGI (MALME-3M melanoma): 75.4 µM | GI50 (SF-539 CNS): 24.7 µM | TGI (SF-539 CNS): > 100 µM | GI50 (MDA-MB-231 breast): 18.2 µM | TGI (MDA-MB-231 breast): > 100 µM | GI50 (HOP-92 NSCLC): 5.78 µM | TGI (HOP-92 NSCLC): 66.1 µM | GI50 (HOP-62 NSCLC): 31.1 µM | TGI (HOP-62 NSCLC): > 100 µM | GI50 (OVCAR-5 ovarian): 24.7 µM | TGI (OVCAR-5 ovarian): > 88.9 µM | GI50 (MDA-MB-435): 17.3 µM | TGI (MDA-MB-435): 99.7 µM | GI50 (MCF7 breast): 10.4 µM | TGI (MCF7 breast): > 100 µM | GI50 (RXF 393 renal): 10.6 µM | TGI (RXF 393 renal): 58 µM | GI50 (U251 CNS): 18 µM | TGI (U251 CNS): > 100 µM | GI50 (NCI-H460 lung): 13 µM | TGI (NCI-H460 lung): > 96.8 µM | GI50 (SK-MEL-5 melanoma): 13.3 µM | TGI (SK-MEL-5 melanoma): 28.3 µM | GI50 (NCI-H522 lung): 17.3 µM | TGI (NCI-H522 lung): > 87.8 µM | GI50 (DU-145 prostate): 30.4 µM | TGI (DU-145 prostate): > 100 µM | GI50 (HT29 colon): 20.6 µM | TGI (HT29 colon): > 100 µM | GI50 (SK-MEL-2 melanoma): 17.3 µM | TGI (SK-MEL-2 melanoma): 47.8 µM | GI50 (OVCAR-3 ovarian): 14.3 µM | TGI (OVCAR-3 ovarian): > 100 µM | GI50 (SN12C renal): 24.9 µM | TGI (SN12C renal): > 100 µM
